Laboratory results reported in patent US20070072897A1, “Phenylaminopropanol derivatives and methods of their use” (Wyeth, priority 2005, published 2007).
Structures can show the parent of a compound that is named as a salt.

Assays:
human hNET = molecular target: T1, human hNET (Homo sapiens, UniProt P23975); assay: Norepinephrine (NE) uptake assay in MDCK-Net6 cells; type: cell-based; settings: [3H]NE uptake, MDCK-Net6 cells stably transfected with hNET
T1 construct: expressed in transfected cells; host or cells: MDCK (MDCK-Net6)

human 5-HT2A receptor = molecular target: T2, human 5-HT2A receptor (Homo sapiens, UniProt P28223); assay: 5-HT2A FLIPR assay (calcium response to DOI) in CHO cells; type: cell-based; settings: for IC50: antagonist inhibition of 3 nM DOI stimulation, CHO cells, FLIPR
T2 construct: expressed in transfected cells; host or cells: CHO
Method in brief: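 CHO cells loaded with calcium dye in HBSS/20 mM HEPES; FLIPR fluorescence recorded after compound addition (10^−10–10^−5 M) for 2 min to detect agonism, then after 3 nM DOI challenge for 5 min for antagonism. Data log transformed before analysis.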

T2 sequence (P28223 whole entry): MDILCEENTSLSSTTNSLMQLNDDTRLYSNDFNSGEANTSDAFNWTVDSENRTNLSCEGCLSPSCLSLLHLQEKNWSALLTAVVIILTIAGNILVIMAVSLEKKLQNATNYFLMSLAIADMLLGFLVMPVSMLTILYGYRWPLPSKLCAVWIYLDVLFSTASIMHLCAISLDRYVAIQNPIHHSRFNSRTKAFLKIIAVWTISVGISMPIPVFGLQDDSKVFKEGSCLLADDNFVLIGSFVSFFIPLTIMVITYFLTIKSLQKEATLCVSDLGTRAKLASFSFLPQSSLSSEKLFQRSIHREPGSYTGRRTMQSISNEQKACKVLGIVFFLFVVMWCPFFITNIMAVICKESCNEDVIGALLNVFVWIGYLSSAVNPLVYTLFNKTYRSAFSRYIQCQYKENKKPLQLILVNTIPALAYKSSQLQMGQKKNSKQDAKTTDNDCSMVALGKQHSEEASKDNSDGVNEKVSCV
T1 sequence (P23975 whole entry): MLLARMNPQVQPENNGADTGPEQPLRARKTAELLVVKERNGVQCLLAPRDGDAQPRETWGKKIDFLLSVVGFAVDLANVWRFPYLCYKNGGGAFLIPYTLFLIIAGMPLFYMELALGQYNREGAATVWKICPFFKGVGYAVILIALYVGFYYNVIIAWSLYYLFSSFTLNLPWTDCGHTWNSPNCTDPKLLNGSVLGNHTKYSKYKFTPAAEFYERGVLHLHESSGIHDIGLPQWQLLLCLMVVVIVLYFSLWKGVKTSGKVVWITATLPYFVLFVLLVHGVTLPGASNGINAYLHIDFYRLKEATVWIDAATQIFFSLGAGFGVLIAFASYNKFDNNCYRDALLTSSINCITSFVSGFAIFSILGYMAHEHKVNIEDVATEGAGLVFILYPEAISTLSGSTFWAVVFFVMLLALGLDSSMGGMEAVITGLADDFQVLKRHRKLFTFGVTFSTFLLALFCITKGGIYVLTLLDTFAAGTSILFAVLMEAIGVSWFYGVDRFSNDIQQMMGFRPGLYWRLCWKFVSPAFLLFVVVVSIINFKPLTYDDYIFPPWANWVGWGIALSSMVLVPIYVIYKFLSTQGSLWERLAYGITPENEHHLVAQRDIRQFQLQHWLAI

Row | EC50 (human hNET) [µM] | IC50 (human 5-HT2A receptor) [µM] | SMILES | inhibition at 1 µM (human 5-HT2A receptor; CHO, read-out: 5-HT2A Percentage inhibition at 1 μM) [%]
1 | 0.349 | 0.168 | CNC[C@@H](O)[C@H](c1ccccc1)N1C(=O)C2(CCCCC2)c2cc(C#N)ccc21 [Example 107, 1′-[(1S,2R)-2-hydroxy-3-(methylamino)-1-phenylpropyl]-2′-oxo-1′,2′-dihydrospiro[cyclohexane-1,3′-indole]-5′-carbonitrile hydrochloride] | 
2 | 0.107 | 1.48 | CNC[C@@H](O)[C@H](c1ccccc1)N1C(=O)C2(CCCCC2)c2c1ccc(F)c2F [Example 109, 4′,5′-difluoro-1′-[(1S,2R)-2-hydroxy-3-(methylamino)-1-phenylpropyl]spiro[cyclohexane-1,3′-indol]-2′(1′H)-one hydrochloride] | 

Row | SMILES | EC50 (human hNET) [µM] | IC50 (human 5-HT2A receptor) [µM] | inhibition at 1 µM (human 5-HT2A receptor; CHO, read-out: 5-HT2A Percentage inhibition at 1 μM) [%]
3 | CNC[C@@H](O)[C@H](c1ccccc1)N1C(=O)C2(CCCCC2)c2ccc(C#N)cc21 [Example 108, 1′-[(1S,2R)-2-hydroxy-3-(methylamino)-1-phenylpropyl]-2′-oxo-1′,2′-dihydrospiro[cyclohexane-1,3′-indole]-6′-carbonitrile hydrochloride] | 1.26 |  | 11
